Measurements from patent publication US20220194989A1, “SUPRAMOLECULAR POLYPEPTIDE COMPOSITIONS AND METHODS OF MAKING AND USING THE SAME” (Duke University, priority 2019, published 2022).
Read-outs that look alike come from different tables or passages of the source. Where no end group is shown, it is not given here.

How the values were obtained:
[1] = tested on: lymphocytes from draining lymph nodes; experiment: ELISpot on draining lymph nodes restimulated with immunizing peptide; type: in vivo, mice; conditions: for induction of antibody and T cell responses: summary of antibody and ELISpot results
[2] = tested on: mice; experiment: Immunization with four (KEYA)nQ11 lengths, anti-immunizing peptide IgG titers; type: in vivo
[3] = tested on: influenza; experiment: Unpublished studies of NP-Q11 flu epitope; type: in vivo
[4] = tested on: mice; experiment: Footpad swelling after footpad injection; conditions: single footpad injection, measured over 72 hours, compared to PBS
Method: (§1) (a) Footpad swelling measured 3, 6, 12, 24, 48, and 72 hours following a single footpad injection of (KEYA)20Q11 (red), Alum (dark gray), or PBS (light gray) and subtracted from baseline measurements. […] Mean+/−s.e.m. shown. n=3-5 experimental replicates per group.
(§2) Mice were injected sub-dermally on the back-right footpad with (KEYA)20Q11, Alum, or PBS to determine extent of inflammation caused by the nanomaterial (FIG. 7a). […] Footpad swelling was measured over the course of 72 hours and normalized to a pre-injection footpad thickness measurement.

[5] = tested on: DC2.4 dendritic cells; experiment: alamarBlue cell viability assay; conditions: 0.2-200 μM, compared to untreated cells
[6] = tested on: RAW264.7 macrophages; experiment: alamarBlue cell viability assay; conditions: 0.2-200 μM, compared to untreated cells
[7] = tested on: mice; experiment: Multiplex cytokine analysis of lavage fluid after i.p. injection; type: in vivo; conditions: for IFNγ in lavage fluid / IL1β in lavage fluid / IL6 in lavage fluid: 2-hour i.p. stimulation, versus PBS
From the text: Immune activation is not mediated by inflammation.

[8] = tested on: DC2.4 cells; experiment: Confocal microscopy of nanofiber internalization; type: cell-based; conditions: after 24 hours
[9] = Nanofiber formation (AFM, ThT binding); type: physicochemical; conditions: physiological conditions
[10] = parameters: species or system mice; conditions: mouse, in vivo; for persistence at the injection site (average days fluorescence detected): sc
From the text: Persistence at the injection site.

[11] = tested on: Dendritic cells; experiment: In vivo APC uptake of fluorescent nanofibers after i.p. injection; parameters: species or system mice; conditions: 2 hours
[12] = tested on: purified lymphocyte populations from spleens; experiment: ELISpot after immunization with (KEYA)20Q11 co-assembled with NP-Q11; type: in vivo, mice; conditions: week 3.5
[13] = tested on: local macrophages; experiment: In vivo APC uptake of fluorescent nanofibers after i.p. injection; parameters: species or system mice; conditions: 2 hours
[14] = mouse, in vivo
Method: Mice injected with TAMRA labeled Q11 on the left flank and (KEYA)20Q11 on the right were (a) measured with IVIS immediately after injection and daily for 7 days. (b) The number of days the fluorescence was detected was graphed to compare the persistence between the two groups. (c) The radiant efficiency was calculated from the images collected and graphed on a log 10 scale. (d) Total amount of remaining nanofiber and (e) overlap between nanofibers and CD45+ cells calculated from confocal images. (f) Representative confocal images from injection site skin collected on Day 7.
Persistence at the injection site. […] Uptake by APCs occurs primarily at the s.c. injection site, so we used IVIS to image mice injected with fluorescently labeled nanofibers over the course of a week. Mice were injected with Q11 on their left flank and (KEYA)20Q11 on their right (FIG. 9a) and images were taken daily to measure the retention of each nanomaterial at the injection site. […] Skin sections were taken of the injection site on day 7 and stained with CD45, a common lymphocyte marker, and DAPI, a common cell nuclei stain (FIG. 9d-f).

[15] = tested on: Lymphocyte populations purified from spleens; experiment: ELISpot after immunization with (KEYA)20Q11 co-assembled with PADREQ11; type: in vivo, mice; conditions: co-assembled with 2.5% PADREQ11; 3.5 weeks
Method: FIG. 6. (KEYA)20Q11 can enhance the T cell stimulatory capabilities of other T and B cell epitopes. (a) ELISpot from mice immunized and boosted with nanofiber formulations containing 2.5% PADREQ11 and either 97.5% (dark red), 2.5% (light red), or 0% (gray) (KEYA)20Q11 co-assembled with Q11 into a 2 mM nanofiber. […] (b) ELISpot from mice immunized and boosted with nanofiber formulations containing 50% NPQ11 and either 50% (red), or 0% (gray) (KEYA)20Q11 co-assembled with Q11 into a 2 mM nanofiber. […] (c) Cartoon of immunization schedule for figures (d) and (e). All groups contained 50% TNFQ11 (d) anti-TNF IgG antibody titers for groups described in (c). (e) anti-TNF IgG1 and IgG2c antibodies. *p<0.05, **p<0.01, ***p<0.001 by 2way ANOVA with Sidak's post hoc test.
Enhancement of co-assembled T and B cell epitopes. Having characterized (KEYA)20Q11 and the subsequent humoral and cellular responses, the inventors tested the hypothesis that co-assembling (KEYA)20Q11 with other epitopes may enhance the response to the co-assembled epitope. Previous work has established a method for ensuring co-assembly of multiple epitopes onto a single nanofiber^38. Highlighting an advantage of the Q11 system, we were able to systematically add and titrate co-assembled (KEYA)20Q11 with a variety of T and B cell epitopes to investigate the resulting magnitude of immune responses. […]

[16] = tested on: splenocytes; experiment: Flow cytometry of splenocytes after s.c. immunization; type: in vivo, mice; conditions: spleens 5 days after last boost; for CD4+CD25hi T cells (Tregs): versus PBS
From the text: FIG. 8. […] (a) Cartoon of s.c. immunization schedule with either (KEYA)20Q11 (red), Q11 (blue), PBS (gray). Spleens were harvested at week 6. Percent of (b) CD3+ cells and (c) CD3+IL4+ cells from total number of live cells. Percent of (d) CD4+ cells and (e) CD4+IL4+ cells from total number of CD3+ cells. […] Mean+/−s.e.m. shown. n=4-5 experimental replicates per group.
Mice were immunized and boosted twice with (KEYA)20Q11, Q11, or PBS ([…]) and their spleens were harvested 5 days after the last boost. After the splenocytes were stimulated overnight with their immunizing peptide, cells were stained and taken to flow cytometry for analysis.

[17] = tested on: mice; conditions: mouse, in vivo
Method: as §1, §2

[18] = tested on: mice; experiment: Immunization with Q11 nanofibers containing 1-50% (KEYA)20Q11, anti-p(KEYA)20 IgG titers; type: in vivo; conditions: 2 mM total formulation with Q11, boosted every 2.5 weeks
Method: FIG. 5. Titration of (KEYA)20 component modulates the strength of engagement with APCs and humoral immunity while maintaining a Type 2 T cell phenotype. Uptake of TAMRA labeled (KEYA)20Q11 in (a) DC2.4 dendritic cells, RAW264.7 macrophages, and B-LCL human B cells stimulated for 0.1, 0.5, 2, 24, and 72 (B cells only) hours measured by flow cytometry. 100% refers to the molar percent of (KEYA)20 incorporated into a 2 mM Q11 nanofiber. 10% indicates 10% (KEYA)20Q11 and 90% Q11, while 0% indicates the entire nanofiber contains only Q11. All groups included 2.5% fluorescent TAMRA-Q11. (b) Representative confocal images of fluorescent Q11 and (KEYA)20Q11 stimulated DC2.4 cells. Nanofibers seen in red, cell nuclei in blue, and cell borders in green. […] (c) Populations of mouse APCs containing nanofibers collected 12 hours after i.p. injection. (d) Cartoon indicating the boosting schedule and graph of the anti-p(KEYA)20 IgG antibody titers. 50% (KEYA)20 is represented darkest red, 33% (KEYA)20 in the second darkest, 10% (KEYA)20 in the second lightest, and 1% (KEYA)20 in the lightest color. Week 16 IgG1 and IgG2c isotypes are shown in (e), (KEYA)20 only produces an IgG1 response when at 33% and 50%. […]

[19] = cited from earlier work
[20] = 12-hour i.p. stimulation, compared to PBS

XQQKFQFQFEQQ (not fully specified; X: randomised place (mixture)) [(KEYA)1Q11]
induction of antibody and T cell responses [1]: ineffective at inducing immune responses | (KEYA)n-specific IgG antibodies ([2]; boosted every 2.5 weeks, 14-week experiment): no humoral response

NH2-QVYSLIRPNENPAHK SGSG QQKFQFQFEQQ-Am (H-QVYSLIRPNENPAHKSGSGQQKFQFQFEQQ-NH2; also: linked to (KEYA)20Q11) [NP-Q11]
protection against an influenza challenge ([3]; unpublished studies): does not raise strong enough responses to be protective | T cell response phenotype ([3]; unpublished work): IFNγ biased T cell responses

Alum
footpad swelling [4]: significantly larger swelling

C[S+](C)[O-] [DMSO]
cell viability (health of the dendritic cells) [5]: dose dependent cytotoxic response | cell viability (health of the macrophages) [6]: dose dependent cytotoxic response

XXXXXXXXXXXXXXXXXXXXQQKFQFQFEQQ [(KEYA)20Q11]
IFNγ in lavage fluid [7]: indistinguishable from PBS | IL1β in lavage fluid [7]: indistinguishable from PBS | IL6 in lavage fluid [7]: indistinguishable from PBS | IL4 in lavage fluid [7, 20]: significantly elevated | IL5 in lavage fluid [7, 20]: significantly elevated | internalization seen by confocal microscopy [8]: abundantly present | nanofiber formation [9]: self-assembles into nanofibers | amount retained at the site by radiant efficiency [10]: greater amounts | persists at the injection site and maintains immunogenicity [10]: up to 7 days | persistence at the injection site (average days fluorescence detected) [10]: 5 days | dendritic cell population with nanofiber uptake [11]: about 60% | T cell response to pNP ([12]; 50% (KEYA)20Q11 co-assembled with 50% NP-Q11 versus 0%): significantly enhanced | response to re-stimulation with p(KEYA)20 ([12]; co-assembled with 50% NP-Q11): strong response | local macrophages with nanofiber uptake [13]: ~100% | capsule formation around the injected material [14]: little to no capsule formation | Type 2 T cell bias upon re-stimulation with p(KEYA)20 [15]: statistically higher production of IL4 than IFNγ | CD4+ T cells [16]: slight reduction | general proliferation of T cells (total percent of CD3+ cells) [16]: no effect | percent of IL4+ CD3+ cells [16]: significantly higher percent | percent of IL4+ CD4+ T cells [16]: increase | CD4+CD25hi T cells (Tregs) [16]: increases the production of Tregs | footpad swelling [17]: no distinguishable swelling | induction of antibody and T cell responses [1]: strong antibody and T cell responses | IL4 production by T cells (ELISpot) ([1]; week 14, compared with (KEYA)1Q11 or (KEYA)5Q11): significantly higher IL4 production | Th2 response indicated by IgG1 versus IgG2c titers ([2]; week 14): strong Th2 response | molar concentration in nanofiber necessary to stimulate a (KEYA)20-specific IgG humoral response [18]: ≥ 33%

SSQNSSDKPVAHVVANHQVE-SGSG-QQKFQFQFEQQ (SSQNSSDKPVAHVVANHQVESGSGQQKFQFQFEQQ; Synthetic- TNF-Q11 TNF4-23 linked to (KEYA)20Q11)
effect on inflammation ([19]; when a strong B cell response is raised): effectively reduce inflammation

QQKFQFQFEQQ (Synthetic- KEYA Q11) [unmodified nanofiber, reference compound]
IFNγ in lavage fluid [7]: indistinguishable from PBS | IL1β in lavage fluid [7]: indistinguishable from PBS | IL6 in lavage fluid [7]: indistinguishable from PBS | internalization seen by confocal microscopy [8]: minimally internalized | inflammation after injection ([19]; in vivo): not inflammatory | humoral response ([19]; previous reports): no humoral response | persistence at the injection site (average days fluorescence detected) [10]: 3 days | dendritic cell population with nanofiber uptake [11]: about 25% | local macrophages with nanofiber uptake [13]: ~100% | CD4+CD25hi T cells (Tregs) [16]: significantly increases
